Test results: patent US20120022033A1, “Methods for decreasing cardiovascular risk in postmenopausal women” (BIOSANTE PHARMACEUTICALS, INC., priority 2010, published 2012)

Tested on: postmenopausal women at high risk for cardiovascular events
Test: Randomized, double-blind, placebo-controlled, multi-center Phase 3 study; observed vs expected cardiovascular events
Type: in vivo
Settings: postmenopausal women at high risk for cardiovascular disease, compared with untreated group
Text: The following example calculates the expected number of cardiovascular events in a population of postmenopausal women derived from historical data. The estimate of the expected rate of cardiovascular events has been determined from the event rates noted in the Women's Health Initiative (WHI), a Department of Health and Human Services National Institute of Health-sponsored study of women between 50 and 79 years of age, a similar set of women between that age were enrolled for determining the actual number of cardiovascular events as described in Example 2.
Overall, the cardiovascular event rate in women in the WHI study who had at least one cardiovascular risk factor was approximately 2-fold greater than in women without any cardiovascular risk factors. […]
The study consisted of a screening period of up to 8 weeks and a 60-month treatment period. […] Adverse cardiovascular and breast cancer events (ABC events) were assessed at each subject contact in addition to the usual assessments of safety and concomitant medications. […]
There were eight adjudicated cardiovascular events determined from this Phase 3 clinical trial after greater than 4,000 woman-years of therapy.

## C[C@]12CC[C@H]3[C@@H](CCC4=CC(=O)CC[C@@]43C)[C@@H]1CC[C@@H]2O [testosterone, testosterone (17-β-hydroxyandrostenone)]
  risk of having a cardiovascular event (result in words): decreases in the risk of having a cardiovascular event
